# Test results: the supplement of paper PMC11208160
# Test: recombinant barcode read abundance after kanamycin selection (control-corrected) (log10(CPM+1)); higher = more efficient recombination; sequences stand for … in AGTGCAGAGAAAATCGGCCAGTTTTCTCTGCCTGCAGTCCGCATGCCGT…AGATTTATGCAGCGGACTGCCTTTCTCCCAAAGTGATAAACCGGACAGTATCATGGACCGGTTTTCCCGGTAATCCGTATTTGCAAGGTTGGTTTCACT; site = the 11-nt target
# Summary of the method: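 A promoter, a target, a barcode and the first 104 bridge RNA bases under J23119 made up each oligo. Oligos were Gibson-cloned into a vector bearing the other 73 bp and a T7-inducible recombinase, then co-electroporated into E. coli with a donor plasmid and plated in duplicate on chloramphenicol/ampicillin LB agar (control) or chloramphenicol/ampicillin/kanamycin with 0.1 mM IPTG. Recombination efficiency is the averaged, control-corrected counts per million of recombinant-junction barcodes. Reported values are log10(CPM+1).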
# 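Note: IS621 recombinase and bridge RNA in Escherichia coli cells.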
row,Sequence,recombinant barcode read abundance (log10)
1,TACGTGTCTTGGGTTCTAACCTGTTGCCT (site TATGTGTCTAG),0.103
2,TACTAAGCTTGGGTTCTAACCTGTTGCCT (site TACTAAGCTAA),0
3,TACTAAGCTTGGGTTCTAACCTGTTGCCT (site TACTAAGCTAC),0.098
4,TACTAAGCTTGGGTTCTAACCTGTTGCCT (site TACTAAGCTAG),0.495
5,TACTAAGCTTGGGTTCTAACCTGTTGCCT (site TACTAAGCTAT),0.171
6,TACTATGCTTGGGTTCTAACCTGTTGCGA (site TACTATGCTTC),0.41
7,TACTATGCTTGGGTTCTAACCTGTTGCGA (site TCCTATTCTTC),0
8,TACTATTCTTGGGTTCTAACCTGTTGCCT (site TACTATACTAG),0.0693
9,TACTATTCTTGGGTTCTAACCTGTTGCCT (site TACTATCCTAG),0.0345
10,TACTATTCTTGGGTTCTAACCTGTTGCCT (site TACTATGCTAG),0.175
11,TACTATTCTTGGGTTCTAACCTGTTGCCT (site TACTATTCTAG),0.263
12,TACTGCTCTTGGGTTCTAACCTGTTGCTT (site TACAGCTCTAA),0.0305
13,TACTGCTCTTGGGTTCTAACCTGTTGCTT (site TACCGCTCTAA),0.213
14,TACTGCTCTTGGGTTCTAACCTGTTGCTT (site TACGGCTCTAA),0.0516
15,TACTGCTCTTGGGTTCTAACCTGTTGCTT (site TACTGCTCTAA),0.296
16,TACTTAACTTGGGTTCTAACCTGTTGCCT (site TACTAAACTAG),0.119
17,TACTTAACTTGGGTTCTAACCTGTTGCCT (site TACTCAACTAG),0.00663
18,TACTTAACTTGGGTTCTAACCTGTTGCCT (site TACTGAACTAG),0.0656
19,TACTTAACTTGGGTTCTAACCTGTTGCCT (site TACTTAACTAG),0.134
20,TACTTCCCTTGGGTTCTAACCTGTTGCGT (site TACTTCCCTAC),1.87
21,TACTTCCCTTGGGTTCTAACCTGTTGCGT (site TACTTCTCTAG),0.0128
22,TACTTCTCTTGGGTTCTAACCTGTTGCCT (site TACTTCCCTAC),0.211
23,TACTTCTCTTGGGTTCTAACCTGTTGCCT (site TACTTCTCTAG),0.764
24,TACTTGCCTTGGGTTCTAACCTGTTGCCT (site TAATTGCCTAG),0.0842
25,TACTTGCCTTGGGTTCTAACCTGTTGCCT (site TACTTGCCTAG),0.804
26,TACTTGCCTTGGGTTCTAACCTGTTGCCT (site TAGTTGCCTAG),0.653

row,Sequence,recombinant barcode read abundance (log10)
1,TACTTGCCTTGGGTTCTAACCTGTTGCCT (site TATTTGCCTAG),0.182
2,TAGAACTCTTGGGTTCTAACCTGTTGCCA (site TAGAACTCTAG),0.254
3,TAGAACTCTTGGGTTCTAACCTGTTGCCA (site TAGAACTCTCG),0.23
4,TAGAACTCTTGGGTTCTAACCTGTTGCCA (site TAGAACTCTGG),0.0926
5,TAGAACTCTTGGGTTCTAACCTGTTGCCA (site TAGAACTCTTG),0.193
6,TAGAAGACTTGGGTTCTAACCTGTTGCTA (site TAGAAGACTAA),0.115
7,TAGAAGACTTGGGTTCTAACCTGTTGCTA (site TAGAAGACTCA),0.487
8,TAGAAGACTTGGGTTCTAACCTGTTGCTA (site TAGAAGACTGA),0.155
9,TAGAAGACTTGGGTTCTAACCTGTTGCTA (site TAGAAGACTTA),1.55
10,TAGAAGACTTGGGTTCTAACCTGTTGCTG (site TAGAAGACTAA),0.128
11,TAGAAGACTTGGGTTCTAACCTGTTGCTG (site TAGAAGACTCA),2.38
12,TAGAAGACTTGGGTTCTAACCTGTTGCTG (site TAGAAGACTGA),0.315
13,TAGAAGACTTGGGTTCTAACCTGTTGCTG (site TAGAAGACTTA),0.639
14,TAGAAGCCTTGGGTTCTAACCTGTTGCTA (site TAGAAGCCTTA),0.463
15,TAGAAGCCTTGGGTTCTAACCTGTTGCTA (site TAGAAGGCTTA),0.21
16,TAGAAGGCTTGGGTTCTAACCTGTTGCAT (site TAGAAGGCTAA),0.162
17,TAGAAGGCTTGGGTTCTAACCTGTTGCAT (site TAGAAGGCTAC),0.0752
18,TAGAAGGCTTGGGTTCTAACCTGTTGCAT (site TAGAAGGCTAG),0.161
19,TAGAAGGCTTGGGTTCTAACCTGTTGCAT (site TAGAAGGCTAT),1.97
20,TAGAATCCTTGGGTTCTAACCTGTTGCAT (site TAGAATCCTAT),0.104
21,TAGAATCCTTGGGTTCTAACCTGTTGCAT (site TAGAATCCTCT),0.102
22,TAGAATCCTTGGGTTCTAACCTGTTGCAT (site TAGAATCCTGT),0.0579
23,TAGAATCCTTGGGTTCTAACCTGTTGCAT (site TAGAATCCTTT),0.241
24,TAGAATGCTTGGGTTCTAACCTGTTGCCT (site TAGAATGCTAA),0.133
25,TAGAATGCTTGGGTTCTAACCTGTTGCCT (site TAGAATGCTAG),0.921
26,TAGACATCTTGGGTTCTAACCTGTTGCTC (site TAGACATCTGA),0.323

row,Sequence,recombinant barcode read abundance (log10)
1,TAGACATCTTGGGTTCTAACCTGTTGCTC (site TAGCCATCTGA),0.0147
2,TAGACATCTTGGGTTCTAACCTGTTGCTC (site TAGGCATCTGA),0.0149
3,TAGACATCTTGGGTTCTAACCTGTTGCTC (site TAGTCATCTGA),0.016
4,TAGACCTCTTGGGTTCTAACCTGTTGCCT (site AAGACCTCTAG),0.113
5,TAGACCTCTTGGGTTCTAACCTGTTGCCT (site TAGACCTCTAG),1.86
6,TAGACTACTTGGGTTCTAACCTGTTGCTT (site TAGACTACTAA),0.0704
7,TAGACTACTTGGGTTCTAACCTGTTGCTT (site TAGACTACTCA),0.0933
8,TAGACTACTTGGGTTCTAACCTGTTGCTT (site TAGACTACTGA),0.0122
9,TAGACTACTTGGGTTCTAACCTGTTGCTT (site TAGACTACTTA),0.137
10,TAGACTGCTTGGGTTCTAACCTGTTGCCT (site TAGACTGCTAG),1.04
11,TAGACTGCTTGGGTTCTAACCTGTTGCCT (site TAGCCTGCTAG),0.224
12,TAGACTGCTTGGGTTCTAACCTGTTGCCT (site TAGGCTGCTAG),0.107
13,TAGACTGCTTGGGTTCTAACCTGTTGCCT (site TAGTCTGCTAG),0.451
14,TAGAGGACTTGGGTTCTAACCTGTTGCAG (site TACAGGACTCT),0.0593
15,TAGAGGACTTGGGTTCTAACCTGTTGCAG (site TAGAGGACTCT),2.23
16,TAGATCGCTTGGGTTCTAACCTGTTGCAG (site TAGATCGCTCT),1.44
17,TAGATCGCTTGGGTTCTAACCTGTTGCAG (site TAGGTCGCTAT),0.266
18,TAGCACACTTGGGTTCTAACCTGTTGCCG (site TAGCACACTCG),1.51
19,TAGCACACTTGGGTTCTAACCTGTTGCCG (site TCGCACACTCA),0.0962
20,TAGCACCCTTGGGTTCTAACCTGTTGCCC (site TAGCACCCTAG),0.681
21,TAGCACCCTTGGGTTCTAACCTGTTGCCC (site TAGCACCCTCG),0.642
22,TAGCACCCTTGGGTTCTAACCTGTTGCCC (site TAGCACCCTGG),1.69
23,TAGCACCCTTGGGTTCTAACCTGTTGCCC (site TAGCACCCTTG),0.0312
24,TAGCAGACTTGGGTTCTAACCTGTTGCCT (site TAGCAGACTAG),1.45
25,TAGCAGACTTGGGTTCTAACCTGTTGCCT (site TAGCCGACTAG),0.034
